Experimental data from paper PMC10669656, “ADMET and Solubility Analysis of New 5-Nitroisatine-Based Inhibitors of CDK2 Enzymes” (Biomedicines, 2023).

Experiment: PARIS III toxicological and environmental analysis of solvents (HTPI, EI)
Set-up: species or system human
Settings: binary solvent with water
Source text: The examined chemical compounds are 2-trifluoromethyl-N′-[5-nitro-2-oxo-1,2-dihydro-3H-indol-3-ylidene]benzohydrazide (1), 3-Amino-N′-[5-nitro-2-oxo-1,2-dihydro-3H-indol-3-ylidene]benzohydrazide (2), and 3-nitro-N′-[5-nitro-2-oxo-1,2-dihydro-3H-indol-3-ylidene]benzohydrazide (3). The evaluation of the descriptors defining molecular properties, absorption, metabolism, and toxicity of considered drugs was estimated with the use of ADMETlab 2.0 [9]. The quantitative structure–activity relationship (QSAR) algorithms implemented in used software based on the chemical structures of considered drugs described by SMILES definitions are presented in Figure 1. The method of interpretation and definitions of particular descriptors obtained during the analysis are included in the Results and Discussion sections. The toxicological analysis of solvents was realized with the use of the Solvent Substitution Software Tool, PARIS III [40, 41]. The characteristics of the Human Toxicity Potential by Ingestion (HTPI) of individual solvents and sets of binary solvents analyzed in this work were obtained based on the values of LD50 for particular solvents.
Additionally, the values of the Environmental Index (EI) were also estimated based on a set of eight environmental impact scores, which included, among others, HTPI, terrestrial toxicity potential, and aquatic toxicity potential. In the case of Equation (2), the σj is the weight for considered impact j, the φi,j stands for the value of normalized impact for considered solvent. (2) EIi=∑j=18σjφi,j¯

| SMILES | % HTPI x1.0 (relative to the pure organic solvent) (x* 0.1) [%] | % HTPI x1.0 (relative to the pure organic solvent) (x* 0.2) [%] | % HTPI x1.0 (relative to the pure organic solvent) (x* 0.3) [%] | % HTPI x1.0 (relative to the pure organic solvent) (x* 0.4) [%] | % HTPI x1.0 (relative to the pure organic solvent) (x* 0.5) [%] | % HTPI x1.0 (relative to the pure organic solvent) (x* 0.6) [%] | % HTPI x1.0 (relative to the pure organic solvent) (x* 0.7) [%] | % HTPI x1.0 (relative to the pure organic solvent) (x* 0.8) [%] | % HTPI x1.0 (relative to the pure organic solvent) (x* 0.9) [%] | % HTPI x1.0 (relative to the pure organic solvent) (x* 1.0) [%] |
| --- | --- | --- | --- | --- | --- | --- | --- | --- | --- | --- |
| CN1CCCC1=O [NMP, N-methyl-2-pyrrolidone] | 39.1 | 58.8 | 70.8 | 79.1 | 84.9 | 89.4 | 93.0 | 95.9 | 98.1 | 100.0 |
| C[S+](C)[O-] [DMSO, dimethyl sulfoxide] | 37.7 | 55.8 | 67.8 | 76.4 | 83.1 | 87.7 | 91.5 | 95.4 | 97.7 | 100.0 |
